T/C data for eleven compounds are collected here from PubChem BioAssay AID328 (DTP/NCI, 2004).

Values joined by “and” are separate entries in the source; they are usually repeats but may differ in a detail not shown here. Equal entries are not always repeated. Toxic doses and inconclusive results are not listed.

For the assay, the system named is BDF1 mice, P388 leukemia ip, median survival T/C. The experiment in a line: NCI In Vivo Anticancer Drug Screen. Data for tumor model P388 Leukemia (intraperitoneal) in B6D2F1 (BDF1) mice. The following applies: endpoint: median survival time, higher = longer survival. The method in brief:
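Compound-treated tumour-bearing mice were compared with vehicle-treated controls. Survival was recorded, and the value is the treated-group measurement divided by the control-group measurement (T/C).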

The mark [1] stands for this setting: dose: 50.0 mg/kg/injection, schedule: Q01DX009 (ip), vehicle: saline.
Setting [2] is: dose: 100.0 mg/kg/injection, schedule: Q01DX009 (ip), vehicle: Klucel (hydroxypropylcellulose) (HPC).
Setting [3] is: dose: 100.0 mg/kg/injection, schedule: Q01DX009 (ip), vehicle: saline.
The mark [4] stands for this setting: dose: 200.0 mg/kg/injection, schedule: Q01DX009 (ip), vehicle: Klucel (hydroxypropylcellulose) (HPC).
Setting [5] is: dose: 200.0 mg/kg/injection, schedule: Q01DX009 (ip), vehicle: saline.

In the case of `NC(=O)CNC1=C(N2CC2)C(=O)C(NCC(N)=O)=C(N2CC2)C1=O`, the T/C was 171 % of control (dose: 2.0 mg/kg/injection, schedule: Q01DX009 (ip), vehicle: saline); 166 % of control (dose: 4.0 mg/kg/injection, schedule: Q01DX009 (ip), vehicle: saline); 116 % of control (dose: 8.0 mg/kg/injection, schedule: Q01DX009 (ip), vehicle: saline).
For `O=C(O)c1ccc(-c2ccc(C(=O)O)cc2I)c(I)c1`, the T/C is 100 % of control (dose: 50.0 mg/kg/injection, schedule: Q01DX009 (ip), vehicle: saline with Tween-80); 96 % of control (dose: 100.0 mg/kg/injection, schedule: Q01DX009 (ip), vehicle: saline with Tween-80); 100 % of control (dose: 100.0 mg/kg/injection, schedule: Q04DX003 (ip), vehicle: saline with Tween-80); 96 % of control (dose: 200.0 mg/kg/injection, schedule: Q01DX009 (ip), vehicle: saline with Tween-80); 100 % of control (dose: 200.0 mg/kg/injection, schedule: Q04DX003 (ip), vehicle: saline with Tween-80); 95 % of control (dose: 400.0 mg/kg/injection, schedule: Q04DX003 (ip), vehicle: saline with Tween-80).
On to `CC(C)(CC(=O)O)CC(=O)OCC(=O)[C@@]1(O)CC[C@H]2[C@@H]3CCC4=CC(=O)C=C[C@]4(C)[C@H]3[C@@H](O)C[C@@]21C`, for which the T/C was 100 % of control (dose: 100.0 mg/kg/injection, schedule: Q01DX009 (ip), vehicle: steriod suspending solution); 120 % of control (dose: 100.0 mg/kg/injection, schedule: Q01DX009 (sc), vehicle: steriod suspending solution); 108 % of control (dose: 100.0 mg/kg/injection, schedule: Q04DX003 (sc), vehicle: steriod suspending solution); 90 % of control (dose: 200.0 mg/kg/injection, schedule: Q01DX009 (ip), vehicle: steriod suspending solution); 120 % of control and 122 % of control (dose: 200.0 mg/kg/injection, schedule: Q01DX009 (sc), vehicle: steriod suspending solution); 100 % of control (dose: 200.0 mg/kg/injection, schedule: Q04DX003 (sc), vehicle: steriod suspending solution). Further, the T/C (dose: 400.0 mg/kg/injection, schedule: Q01DX009 (ip), vehicle: steriod suspending solution) was 90 % of control; the T/C (dose: 400.0 mg/kg/injection, schedule: Q01DX009 (sc), vehicle: steriod suspending solution) is 110 % of control; the T/C (dose: 400.0 mg/kg/injection, schedule: Q04DX003 (sc), vehicle: steriod suspending solution) is 104 % of control.
Consider `CCC[CH2][Sn](=[S])[CH2]CCC`, for which the T/C is 111 % of control (dose: 0.59 mg/kg/injection, schedule: Q01DX009 (ip), vehicle: other); 115 % of control (dose: 1.33 mg/kg/injection, schedule: Q01DX009 (ip), vehicle: other); 109 % of control (dose: 1.56 mg/kg/injection, schedule: Q04DX003 (ip), vehicle: other); 109 % of control (dose: 2.66 mg/kg/injection, schedule: Q04DX003 (ip), vehicle: other); 116 % of control (dose: 3.13 mg/kg/injection, schedule: Q04DX003 (ip), vehicle: other); 156 % of control (dose: 6.25 mg/kg/injection, schedule: Q04DX003 (ip), vehicle: other). Moreover, for the setting “dose: 200.0 mg/kg/injection, schedule: Q01DX010 (ip), vehicle: carboxymethylcellulose (CMC)”, the T/C was 110 % of control.
Turning to `COc1cc(/C=C(/C)[N+](=O)[O-])ccc1O`, the T/C is, setting by setting: (dose: 12.5 mg/kg/injection, schedule: Q01DX009 (ip), vehicle: carboxymethylcellulose (CMC)) 118 % of control; (dose: 18.75 mg/kg/injection, schedule: Q01DX009 (ip), vehicle: Klucel (hydroxypropylcellulose) (HPC)) 121 % of control; (dose: 25.0 mg/kg/injection, schedule: Q01DX009 (ip), vehicle: Klucel (hydroxypropylcellulose) (HPC)) 103 % of control and 112 % of control; (dose: 50.0 mg/kg/injection, schedule: Q01DX009 (ip), vehicle: Klucel (hydroxypropylcellulose) (HPC)) 116 % of control; under setting [1], 122 % of control; (dose: 50.0 mg/kg/injection, schedule: Q04DX003 (ip), vehicle: saline) 109 % of control. Moreover, the T/C is, setting by setting: under setting [2], 114 % of control; under setting [3], 92 % of control; (dose: 100.0 mg/kg/injection, schedule: Q04DX003 (ip), vehicle: saline) 113 % of control; under setting [4], 114 % of control; under setting [5], 122 % of control; (dose: 200.0 mg/kg/injection, schedule: Q04DX003 (ip), vehicle: saline) 118 % of control.
Consider `Cc1ccccc1/C=C1\CC(C)(C)c2ccccc2C1=O`, for which the T/C was 100 % of control under setting [2]; 95 % of control (dose: 100.0 mg/kg/injection, schedule: Q04DX003 (ip), vehicle: Klucel (hydroxypropylcellulose) (HPC)); 95 % of control under setting [4]; 95 % of control (dose: 200.0 mg/kg/injection, schedule: Q04DX003 (ip), vehicle: Klucel (hydroxypropylcellulose) (HPC)); 104 % of control (dose: 400.0 mg/kg/injection, schedule: Q01DX009 (ip), vehicle: Klucel (hydroxypropylcellulose) (HPC)); 95 % of control (dose: 400.0 mg/kg/injection, schedule: Q04DX003 (ip), vehicle: Klucel (hydroxypropylcellulose) (HPC)).
On to `O=[N+]([O-])C=C(S)S`, for which the T/C (dose: 12.5 mg/kg/injection, schedule: Q01DX009 (ip), vehicle: water) is 101 % of control; the T/C (dose: 25.0 mg/kg/injection, schedule: Q01DX009 (ip), vehicle: water) was 124 % of control; the T/C (dose: 50.0 mg/kg/injection, schedule: Q01DX009 (ip), vehicle: water) was 117 % of control; the T/C (dose: 100.0 mg/kg/injection, schedule: Q01DX009 (ip), vehicle: water) was 108 % of control.
For the compound `CN(C)CC/C=C1\c2ccccc2Sc2ccc(C(F)(F)F)cc21`, the T/C is 112 % of control and 113 % of control (dose: 9.2 mg/kg/injection, schedule: Q04DX003 (ip), vehicle: saline); 116 % of control (dose: 21.0 mg/kg/injection, schedule: Q04DX003 (ip), vehicle: saline); 100 % of control (dose: 29.0 mg/kg/injection, schedule: Q04DX003 (ip), vehicle: saline); 122 % of control (dose: 65.0 mg/kg/injection, schedule: Q01DX001 (ip), vehicle: saline).
On to `C[n+]1ccc(C#N)c2ccccc21`, for which the T/C reads like this: (dose: 1.1 mg/kg/injection, schedule: Q04DX003 (ip), vehicle: saline) 92 % of control and 100 % of control; (dose: 1.71 mg/kg/injection, schedule: Q04DX003 (ip), vehicle: saline) 95 % of control; (dose: 2.5 mg/kg/injection, schedule: Q04DX003 (ip), vehicle: saline) 88 % of control and 95 % of control; (dose: 3.12 mg/kg/injection, schedule: Q01DX009 (ip), vehicle: saline) 104 % of control; (dose: 3.43 mg/kg/injection, schedule: Q04DX003 (ip), vehicle: saline) 120 % of control; (dose: 6.25 mg/kg/injection, schedule: Q01DX009 (ip), vehicle: saline) 118 % of control. Moreover, the T/C is 100 % of control (dose: 6.87 mg/kg/injection, schedule: Q04DX003 (ip), vehicle: saline); 91 % of control (dose: 7.5 mg/kg/injection, schedule: Q04DX003 (ip), vehicle: saline with Tween-80); 120 % of control (dose: 11.0 mg/kg/injection, schedule: Q01DX009 (ip), vehicle: saline); 118 % of control (dose: 12.5 mg/kg/injection, schedule: Q01DX009 (ip), vehicle: saline); 104 % of control (dose: 15.0 mg/kg/injection, schedule: Q04DX003 (ip), vehicle: saline with Tween-80).
As for `O=C1C=CN(C2OC(CO)C(O)C2O)C(=O)C1` (configuration not stated), the T/C runs as follows: (dose: 22.0 mg/kg/injection, schedule: Q01DX009 (ip), vehicle: saline) 103 % of control; (dose: 33.0 mg/kg/injection, schedule: Q01DX009 (ip), vehicle: saline) 107 % of control; under setting [1], 87 % of control and 101 % of control (2×); (dose: 75.0 mg/kg/injection, schedule: Q01DX009 (ip), vehicle: saline) 110 % of control; under setting [3], 87 % of control; under setting [5], 91 % of control. In addition, under “dose: 400.0 mg/kg/injection, schedule: Q01DX009 (ip), vehicle: saline”, the T/C was 100 % of control.
For the compound `COCCCC/C(=N\OCCN)c1ccc(C(F)(F)F)cc1`, the T/C is 103 % of control under setting [1], 112 % of control under setting [3] and 108 % of control under setting [5].
